Our source for the EC50 values is patent US11820773B2, “Tricyclic compounds” (ALIGOS THERAPEUTICS, INC., priority 2020, dated 2023).

Bounds are passed on as bounds.

The subject of this experiment is HBV. The experiment can be described thus: HBV-DNA antiviral assay using HepG2.117 cells (intracellular HBV DNA by qPCR). The format is cell-based, genotype D HBV. To be noted: HBV DNA inhibition, 3 days incubation, 2% DMSO. In a few lines:
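HepG2.117 cells (stable genotype D HBV, Tet-off) seeded without doxycycline, treated next day with 9-point 4-fold dilutions in 2% DMSO for 3 days at 37° C. Intracellular HBV DNA quantified by qPCR against a standard curve; viability by CellTiter-Glo ATP. EC50, EC90, CC50 from variable-slope dose-response fits versus DMSO control.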
On the technique in general: In qPCR the cycle at which signal appears reflects the starting amount.

Broadly, the EC50 is the concentration needed to bring the measured effect to its halfway point. A higher EC50 goes with weaker potency. As for `Cc1nnc(-c2ccc(-n3c(=O)c4c(n5ncc(Cc6ccccc6)c35)CN(C(=O)c3ccc(Br)c(C(F)(F)F)c3)CC4)cc2)n1C` [Compound 32, 5-benzyl-12-[4-bromo-3-(trifluoromethyl)benzoyl]-7-[4-(4,5-dimethyl-1,2,4-triazol-3-yl)phenyl]-2,3,7,12-tetrazatricyclo[7.4.0.0^2,6]trideca-1(9),3,5-trien-8-one], the 50% effective concentration (EC50) (Hepatitis B virus, 72 h) is below 50 nM.

In the case of `Cc1nnc(-c2ccc(-n3c(=O)c4c(n5ncc(Cc6ccccc6)c35)CN(C(=O)c3ccc(Br)c(Cl)c3)[C@H](C)C4)cc2)[nH]1` (stereo in doubt) [Compound 53a, rac-(11R)-5-benzyl-12-(4-bromo-3-chloro-benzoyl)-11-methyl-7-[4-(5-methyl-4H-1,2,4-triazol-3-yl)phenyl]-2,3,7,12-tetrazatricyclo[7.4.0.0^2,6]trideca-1(9),3,5-trien-8-one], the EC50 (Hepatitis B virus, 72 h) is below 50 nM.

The compound `C[C@H]1Cc2c(n3ncc(CC4CCC4)c3n(-c3ccc(-c4nncn4C)cc3)c2=O)CN1C(=O)c1ccc(Br)c(C(F)(F)F)c1` (stereo in doubt) [Compound 45b, rac-(11S)-12-[4-bromo-3-(trifluoromethyl)benzoyl]-5-(cyclobutylmethyl)-11-methyl-7-[4-(4-methyl-1,2,4-triazol-3-yl)phenyl]-2,3,7,12-tetrazatricyclo[7.4.0.0^2,6]trideca-1(9),3,5-trien-8-one] yielded a half-maximal effective concentration (EC50) (Hepatitis B virus, 72 h) of 50 to 500 nM.

For `Cn1cnnc1-c1ccc(-n2c(=O)c3c(n4ncc(Cc5ccccc5)c24)CN(C(=O)c2ccc(Br)c(Cl)c2)CC3)cc1` [Compound 9, 5-benzyl-12-(4-bromo-3-chloro-benzoyl)-7-[4-(4-methyl-1,2,4-triazol-3-yl)phenyl]-2,3,7,12-tetrazatricyclo[7.4.0.0^2,6]trideca-1(9),3,5-trien-8-one], the EC50 is below 50 nM.

`CNc1n[nH]c2cc(-n3c(=O)c4c(n5ncc(CC(C)C)c35)CN(C(=O)c3ccc(Br)c(C(F)(F)F)c3)[C@@H](C)C4)ccc12` (stereo in doubt) [Compound 61b, rac-(11S)-12-[4-bromo-3-(trifluoromethyl)benzoyl]-5-isobutyl-11-methyl-7-[3-(methylamino)-1H-indazol-6-yl]-2,3,7,12-tetrazatricyclo[7.4.0.0^2,6]trideca-1(9),3,5-trien-8-one]: for the setting “Hepatitis B virus, 72 h”, the 50% effective concentration (EC50) was 50 to 500 nM.

Regarding `C[C@H]1Cc2c(n3ncc(CC4CCC4)c3n(-c3ccc(-c4nncn4C)cc3)c2=O)CN1C(=O)c1ccc(Br)c(Cl)c1` (stereo in doubt) [Compound 48b, rac-(11S)-12-(4-bromo-3-chloro-benzoyl)-5-(cyclobutylmethyl)-11-methyl-7-[4-(4-methyl-1,2,4-triazol-3-yl)phenyl]-2,3,7,12-tetrazatricyclo[7.4.0.0^2,6]trideca-1(9),3,5-trien-8-one], for the setting “Hepatitis B virus, 72 h”, the EC50 lay within 50 to 500 nM.

Where the note is “Hepatitis B virus, 72 h”, `CNC(=O)c1ccc(-n2c(=O)c3c(n4ncc(CC5CCC5)c24)CN(C(=O)c2ccc(Br)c(C(F)(F)F)c2)CC3)cc1` [Compound 16, 4-[12-[4-bromo-3-(trifluoromethyl)benzoyl]-5-(cyclobutylmethyl)-8-oxo-2,3,7,12-tetrazatricyclo[7.4.0.0^2,6]trideca-1(9),3,5-trien-7-yl]-N-methyl-benzamide] had a half-maximal effective concentration (EC50) below 50 nM.

Take `CN1Cc2cc(-n3c(=O)c4c(n5ncc(Cc6ccccc6)c35)CN(C(=O)c3ccc(Br)c(Cl)c3)CC4)ccc2C1=O` [Compound 15, 5-benzyl-12-(4-bromo-3-chloro-benzoyl)-7-(2-methyl-1-oxo-isoindolin-5-yl)-2,3,7,12-tetrazatricyclo[7.4.0.0^2,6]trideca-1(9),3,5-trien-8-one]: the EC50 (Hepatitis B virus, 72 h) is below 50 nM.

Where the note is “Hepatitis B virus, 72 h”, `Cc1nnc(-c2ccc(-n3c(=O)c4c(n5ncc(Cc6ccccc6)c35)CN(C(=O)c3ccc(Br)c(C(F)(F)F)c3)[C@@H](C)C4)cc2)[nH]1` (stereo in doubt) [Compound 47b, rac-(11S)-5-benzyl-12-[4-bromo-3-(trifluoromethyl)benzoyl]-11-methyl-7-[4-(5-methyl-4H-1,2,4-triazol-3-yl)phenyl]-2,3,7,12-tetrazatricyclo[7.4.0.0^2,6]trideca-1(9),3,5-trien-8-one] had an EC50 below 50 nM.
